Laboratory results: publication PMC11747885, “Potent inhibitors of the human RNA ligase Rlig1 highlights its role in RNA integrity maintenance under oxidative cellular stress” (Chemical Science, 2025)
Read-outs that look alike come from different tables or passages of the source. No end group written: not given here.

Legend:
Rlig1-AMP [1] = target: T1, Rlig1-AMP (Homo sapiens, UniProt Q8N999); assay: Radioactive RNA ligation assay (hit validation, 10 µM test and IC50 determination); assay type: biochemical; details: for inhibition in radioactive ligation assay (hit validation): 10 µM compound, 37 °C, 20 min
T1 construct: made in house; host or cells: E. coli BL21 (DE3), pET15b-Rlig1

Rlig1-AMP [2] = target: T1, Rlig1-AMP; assay: FRET-based high-throughput screening of inhibitors for Rlig1-AMP; assay type: biochemical
[3] = HTS hits, difference of raw data w/o and w enzyme
[4] = HTS hits, normalized value (npi)
[5] = HTS hits, MedChemExpress library
[6] = HTS hits, difference of raw data without and with enzyme
[7] = HTS hits, normalised value of 1-D Distance
[8] = sheet HTS hits, MedChemExpress library
[9] = sheet HTS hits, difference of raw data w/o and w enzyme

T1 sequence (Q8N999 whole entry): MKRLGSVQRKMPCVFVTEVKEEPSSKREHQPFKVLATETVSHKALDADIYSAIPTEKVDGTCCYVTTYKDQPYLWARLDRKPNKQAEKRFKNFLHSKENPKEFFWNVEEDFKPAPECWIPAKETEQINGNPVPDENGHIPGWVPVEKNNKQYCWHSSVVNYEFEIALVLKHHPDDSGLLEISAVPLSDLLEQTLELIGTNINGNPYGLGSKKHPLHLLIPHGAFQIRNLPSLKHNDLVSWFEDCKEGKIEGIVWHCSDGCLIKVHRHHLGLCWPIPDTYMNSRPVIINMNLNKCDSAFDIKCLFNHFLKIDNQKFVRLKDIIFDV

Compound | 1-D Distance (Rlig1-AMP [2]; [3]) | Raw data [w Enyzm] (Rlig1-AMP [2]; HTS hits, with enzyme) | Raw data [w/o Enzym] (Rlig1-AMP [2]; HTS hits, without enzyme) | 1-D Distance (Rlig1-AMP [2]; [6]) | 1-D Distance.npi (Rlig1-AMP [2]; [7]) | also measured
CN(C)C/C=C/C(=O)Nc1ccc(C(=O)Nc2cccc(Nc3ncc(Cl)c(-c4c[nH]c5ccccc45)n3)c2)cc1.Cl [Compound 2, THZ1 (Hydrochloride), reference compound] |  |  |  |  |  | inhibition in radioactive ligation assay (hit validation) (Rlig1-AMP [1]): above 70%
Cc1cc(-c2cc(O)ccc2Cl)cc2nnc(Nc3ccc(OCCN4CCCC4)cc3)nc12.Cl [Compound 6, reference compound] |  |  |  |  |  | inhibition in radioactive ligation assay (hit validation) (Rlig1-AMP [1]): above 70%
Cn1nc(-c2ccc(C(F)(F)F)cc2)nc2c(=O)n(C)c(=O)nc1-2 [Compound 11, reference compound] |  |  |  |  |  | IC50 (in words) (Rlig1-AMP [1]; concentration-dependent radioactive ligation assay): nanomolar range
CC(C)c1nc2c([nH]1)-c1ccccc1C(=O)C2=O [KL1333] | 578 | 12041 | 12619 |  |  | 1-D Distance.npi (Rlig1-AMP [2]; [4]): 96.7085
N[C@@H](CS)C(=O)O [L-Cysteine] | 1124 | 9158 | 10282 |  |  | 
N#Cc1cc(NS(=O)(=O)c2ccc(N)cc2)ccc1Oc1ccc(Cl)c(C(F)(F)F)c1 [Lp-PLA2-IN-3] |  | 9448 |  | 555 |  | 1-D Distance.npi (Rlig1-AMP [2]; [5]): 92.9896
CN(C)CCOC(=O)COc1ccc(Cl)cc1.Cl [Meclofenoxate (hydrochloride)] |  | 9480 | 11312 | 1832 |  | 1-D Distance.npi (Rlig1-AMP [2]; [5]): 72.0073
COS(=O)(=O)[O-].COc1cccc2c1nc1ccccc1[n+]2C [Methoxy-PMS] | 2097 | 4514 | 6611 |  |  | 1-D Distance.npi (Rlig1-AMP [2]; [4]): 71.83
COC(=O)Cc1ccc(C(C)(C)C)cc1 [Methyl p-tert-butylphenylacetate] | 2067 | 8807 | 10874 |  | 70.3748 | 
C/C1=C2/[N-][C@H]([C@H](CC(N)=O)[C@@]2(C)CCC(=O)NC[C@H](C)OP(=O)([O-])O[C@H]2[C@@H](O)[C@@H](n3cnc4cc(C)c(C)cc43)O[C@@H]2CO)[C@]2(C)N=C(/C(C)=C3N=C(/C=C4N=C1[C@@H](CCC(N)=O)C\4(C)C)[C@@H](CCC(N)=O)[C@]\3(C)CC(N)=O)[C@@H](CCC(N)=O)[C@]2(C)CC(N)=O.[CH3-].[Co+3] [Methylcobalamin] |  |  |  |  |  | 1-D Distance.npi (Rlig1-AMP [2]; [8]): 89.4559; 1-D Distance (Rlig1-AMP [2]; [9]): 977; Raw data [w Enyzm] (Rlig1-AMP [2]; sheet HTS hits, with enzyme): 4140; Raw data [w/o Enzym] (Rlig1-AMP [2]; sheet HTS hits, without enzyme): 5117
CN(C)c1ccc2nc3ccc(=[N+](C)C)cc-3sc2c1.O.O.O.[Cl-] [Methylene blue (trihydrate)] |  | 6070 |  | 1051 |  | 1-D Distance.npi (Rlig1-AMP [2]; [5]): 83.8926
O=C(NCCCCCCCCCC[P+](c1ccccc1)(c1ccccc1)c1ccccc1)c1nn(Cc2ccc(Cl)cc2Cl)c2ccccc12.[Br-] [Mito-LND] |  | 5993 | 4259 | 1734 |  | 1-D Distance.npi (Rlig1-AMP [2]; [5]): 74.0964
Cl.NC(CO)(CO)CCc1ccc(Sc2cccc(OCc3ccccc3)c2)cc1Cl [Mocravimod (hydrochloride)] |  | 8286 | 8462 | 176 |  | 1-D Distance.npi (Rlig1-AMP [2]; [5]): 104.362
COc1cc(/C=C/C(=O)NCC(O)c2ccc(O)cc2)ccc1O (stereo not shown) [N-Feruloyloctopamine] |  |  |  |  |  | 1-D Distance.npi (Rlig1-AMP [2]; [8]): 70.0499; 1-D Distance (Rlig1-AMP [2]; [9]): 1918; Raw data [w Enyzm] (Rlig1-AMP [2]; sheet HTS hits, with enzyme): 9094; Raw data [w/o Enzym] (Rlig1-AMP [2]; sheet HTS hits, without enzyme): 11012
NC[C@@H]1O[C@H](O[C@H]2[C@@H](O)[C@H](O[C@@H]3[C@@H](O)[C@H](N)C[C@H](N)[C@H]3O[C@H]3O[C@H](CN)[C@@H](O)[C@H](O)[C@H]3N)O[C@@H]2CO)[C@H](N)[C@@H](O)[C@@H]1O.O=S(=O)(O)O [Neomycin (sulfate)] | 482 | 7973 | 8455 |  | 97.3447 | 
CCCCCOc1ccccc1/C(=C\SC)n1ccnc1.Cl [Neticonazole (hydrochloride)] |  | 9255 | 10970 | 1715 |  | 1-D Distance.npi (Rlig1-AMP [2]; [5]): 74.1423
Cl.Cl.Cn1cc(NC(=O)c2cc(NC(=O)CN=C(N)N)cn2C)cc1C(=O)NCCC(=N)N [Netropsin (dihydrochloride)] | 1774 | 8749 |  |  | 75.4127 | 
CC1CS(=O)(=O)CCN1/N=C/c1ccc([N+](=O)[O-])o1 (stereo not shown) [Nifurtimox] | 1863 | 7893 |  |  |  | 

Compound | 1-D Distance (Rlig1-AMP [2]; [3]) | Raw data [w Enyzm] (Rlig1-AMP [2]; HTS hits, with enzyme) | Raw data [w/o Enzym] (Rlig1-AMP [2]; HTS hits, without enzyme) | 1-D Distance (Rlig1-AMP [2]; [6]) | 1-D Distance.npi (Rlig1-AMP [2]; [7]) | also measured
CCCCCCCCN=c1ccn(CCCCCCCCCCn2ccc(=NCCCCCCCC)cc2)cc1.Cl.Cl [Octenidine (dihydrochloride)] | 1500 | 8818 | 7318 |  | 76.2265 | 
Cl[TeH]1(Cl)(Cl)OCCO1 [Ossirene] | 1663 | 4805 | 6468 |  |  | 
NC[C@@H]1O[C@H](O[C@H]2[C@@H](O)[C@H](O[C@@H]3[C@@H](O)[C@H](N)C[C@H](N)[C@H]3O[C@H]3O[C@H](CO)[C@@H](O)[C@H](O)[C@H]3N)O[C@@H]2CO)[C@H](N)[C@@H](O)[C@@H]1O.O=S(=O)(O)O [Paromomycin (sulfate)] | 1220 | 8444 | 9664 |  | 82.0351 | 
COS(=O)(=O)[O-].C[n+]1c2ccccc2nc2ccccc21 [Phenazine (methylsulfate)] |  | 2478 | 3897 | 1419 |  | 1-D Distance.npi (Rlig1-AMP [2]; [5]): 78.9166
c1cnc(N2CCN(Cc3ccc4c(c3)OCO4)CC2)nc1 [Piribedil] |  | 9369 | 11071 | 1702 |  | 
NCCNc1ccc(NCCN)c2c1C(=O)c1ccncc1C2=O.O=C(O)/C=C\C(=O)O.O=C(O)/C=C\C(=O)O [Pixantrone (dimaleate)] |  | 4061 | 5199 | 1138 |  | 1-D Distance.npi (Rlig1-AMP [2]; [5]): 84.4919
CC(C)c1cccc(C(C)C)c1O [Propofol] |  |  |  |  |  | 1-D Distance (Rlig1-AMP [2]): 1959; Raw data [w Enyzm] (Rlig1-AMP [2]): 8754; Raw data [w/o Enzym] (Rlig1-AMP [2]): 10713
CCC(O)C(=O)[O-].[Na+] (stereo not shown) [Sodium 2-hydroxybutanoate] | 1888 | 8789 | 10677 |  | 73.0807 | 
O.O=C1C=CC[C@@H]2[C@H]3CCCN4CCC[C@@H](CN12)[C@@H]34 [Sophocarpine (monohydrate)] | 1834 | 8885 | 10719 |  | 71.833 | 
COc1cc(S(=O)(=O)[O-])ccc1O.[K+] [Sulfogaiacol] |  |  |  |  |  | 1-D Distance.npi (Rlig1-AMP [2]; [8]): 81.4409; 1-D Distance (Rlig1-AMP [2]; [9]): 1427; Raw data [w Enyzm] (Rlig1-AMP [2]; sheet HTS hits, with enzyme): 8908; Raw data [w/o Enzym] (Rlig1-AMP [2]; sheet HTS hits, without enzyme): 10335
Cn1ncnc2c(=O)n(C)c(=O)nc1-2 [Toxoflavin] | 1019 | 16186 | 17205 |  |  | 1-D Distance.npi (Rlig1-AMP [2]; [4]): 89.8188
C/C=C/c1cc(OC)c(OC)cc1OC [alpha-Asarone] | 1762 | 8891 | 10653 |  | 73.1231 | 
LL-37, human (TFA) |  | 6495 | 6396 | 99 |  | 1-D Distance.npi (Rlig1-AMP [2]; [5]): 104.017
Lactoferrin (17-41) (acetate) (TKCFQWQRNMRKVRGPPVSCIKRDS; ends and bridges not checked; also: acetate salt; UniProt P02788 36-60, looked up, fragment) | 1421 | 8755 | 10176 |  | 74.4696 | 
Plicamycin |  | 9254 | 11211 | 1957 |  | 
Verteporfin | 1236 | 1492 | 2728 |  | 82.5479 | 
Vitamin B12 | 580 | 5329 | 5909 |  | 94.3021 | 
